Assay results reported in US12089593B2, “Compositions and methods for treating and preventing dust mite infestation” (EVOLVA SA, priority 2016, dated 2024).

Test system: Dust mite Dermataphagoides farinae
Test: Laboratory bioassay: dust mite susceptibility to nootkatone on treated filter paper envelopes
Format: in vivo
Description: This example describes a laboratory bioassay in which groups of dust mites were exposed to a solution of the product to determine dust mite susceptibility to nootkatone.
One milliliter of a 1% (wt/vol) nootkatone in ethanol formulation was applied directly to 9 cm discs of filter paper by pipette. The filter papers were allowed to dry completely and were cut to the appropriate size prior to the start of the test. Pure ethanol was used as a control.
Treated and untreated (ethanol-treated only) filter papers were cut into 2.5 inch (6.35 cm) squares and folded into envelopes to serve as containers for the test. Five replicates of 35 dust mites were tested per treatment. After the mites were placed inside, the openings were sealed using clips so that the mites could not escape.
Dust mites were only observed after 72 hours post-introduction to the test containers, due to their small size, and the likelihood of loss of mites during handling. […] Results

[1] = 72 hours post introduction, filter paper treated with 1 mL of 1% (wt/vol) nootkatone in ethanol, dried, five replicates of 35 adult mixed-sex mites

In the case of `C=C(C)[C@@H]1CCC2=CC(=O)C[C@@H](C)[C@]2(C)C1` [Nootkatone, nootkatone], the “state of mites after exposure (175 total mites)” value (72 hours of exposure to filter papers treated with 1% nootkatone in ethanol) is reported as “all dead”, the “Means Affected” value [1] is reported as 100.0% and the “Means Dead” value [1] is reported as 100.0%. For the same compound, the “Means KD (knockdown)” value [1] was 0.0% and the “mortality rates of dust mites” value (dust mites exposed to low concentrations of nootkatone) was 100%.
